Ki and EC50 data for 25 molecules are collected here from patent US11161850B2, “Fused pyrazine derivatives as A2A / A2B inhibitors” (Incyte Corporation, priority 2018, dated 2021).

Assay [1] has as its target Adenosine A2A (Homo sapiens (Human), UniProt P29274). The experiment in a line: A2A Tag-Lite HTRF assay. It is filed as binding. From the text:
Example C. A2A Tag-Lite® HTRF Assay
On the technique in general: Time-resolved FRET reads energy transfer from a long-lived donor to a nearby acceptor.

Assay [2] deals with human adenosine A2B receptor (Homo sapiens (Human), UniProt P29275). The experiment in a line: Adenosine A2B Receptor Cyclic AMP GS Assay. It is filed as cell-based. The note with it: HEK-293 cells expressing human A2B, agonist NECA 12 nM. The essentials: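 Stably transfected HEK-293 cells were preincubated with compound for 30 min at room temperature, then stimulated with 12 nM NECA for 60 min. cAMP accumulation was read by FRET (665/620 ratio), and EC50 was fitted from percent of control versus log compound concentration.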
human adenosine A2B receptor, sequence (P29275 whole entry): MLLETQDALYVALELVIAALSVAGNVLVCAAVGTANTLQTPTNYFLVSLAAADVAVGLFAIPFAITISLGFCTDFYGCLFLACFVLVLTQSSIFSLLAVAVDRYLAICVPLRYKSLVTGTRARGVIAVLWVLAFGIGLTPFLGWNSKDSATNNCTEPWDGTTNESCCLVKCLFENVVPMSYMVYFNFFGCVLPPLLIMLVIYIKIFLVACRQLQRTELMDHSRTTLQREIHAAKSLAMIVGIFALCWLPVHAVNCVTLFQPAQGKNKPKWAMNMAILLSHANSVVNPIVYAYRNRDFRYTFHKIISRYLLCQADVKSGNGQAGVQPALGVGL

The mark [3] stands for this setting: Tag-Lite Adenosine A2A labeled cells, fluorescent ligand 12.5 nM, read-out: A2A_Ki.
Where [4] appears, read: read-out: A2A_Ki, Tag-Lite Adenosine A2A labeled cells, fluorescent ligand 12.5 nM.

Where two headings read alike, the source gives them in different places.

Adenosine A2A, sequence (P29274 whole entry): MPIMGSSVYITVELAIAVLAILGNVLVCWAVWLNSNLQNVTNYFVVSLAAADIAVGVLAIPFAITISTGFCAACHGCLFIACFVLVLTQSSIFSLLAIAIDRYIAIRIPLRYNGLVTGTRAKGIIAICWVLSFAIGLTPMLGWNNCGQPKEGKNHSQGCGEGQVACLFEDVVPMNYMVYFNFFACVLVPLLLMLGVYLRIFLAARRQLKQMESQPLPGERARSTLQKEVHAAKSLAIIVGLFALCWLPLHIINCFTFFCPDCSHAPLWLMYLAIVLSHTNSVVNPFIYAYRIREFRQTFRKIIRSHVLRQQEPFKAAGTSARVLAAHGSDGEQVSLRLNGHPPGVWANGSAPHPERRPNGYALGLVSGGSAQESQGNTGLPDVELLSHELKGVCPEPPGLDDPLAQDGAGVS

`N#Cc1cccc(-c2nc(N)c3nc(C(O)c4c(F)cccc4OC(F)F)nn3c2-c2ccncn2)c1` (single isomer, unassigned) [Example 97, 3-(8-amino-2-((2-(difluoromethoxy)-6-fluorophenyl)(hydroxy)methyl)-5-(pyrimidin-4-yl)-[1,2,4]triazolo[1,5-a]pyrazin-6-yl)benzonitrile]: in assay [1], the Ki was less than 0.01 µM. The same molecule gave an EC50 in assay [2] (A2B_cAMP_EC50 (nM)) of less than 10 nM.

For `Cc1ncoc1-c1c(-c2cccc(C#N)c2)nc(N)c2nc(Cc3c(F)cccc3CN3CC[C@@](C)(C(=O)O)C3)nn12` [Example 76, (R)-1-(2-((8-amino-6-(3-cyanophenyl)-5-(4-methyloxazol-5-yl)-[1,2,4]triazolo[1,5-a]pyrazin-2-yl)methyl)-3-fluorobenzyl)-3-methylpyrrolidine-3-carboxylic Acid], the Ki in assay [1] (setting [3]) was less than 0.01 µM. Besides, in assay [2] (A2B_cAMP_EC50 (nM)), the EC50 was in the range of 10 to 100 nM.

`N#Cc1cccc(-c2nc(N)c3nc(Cc4cccc5ocnc45)nn3c2-c2ccncn2)c1` [Example 63, 3-(8-amino-2-(benzo[d]oxazol-4-ylmethyl)-5-(pyrimidin-4-yl)-[1,2,4]triazolo[1,5-a]pyrazin-6-yl)benzonitrile]: the Ki in assay [1] (setting [3]) was less than 0.01 µM. Besides, the EC50 in assay [2] (A2B_cAMP_EC50 (nM)) is less than 10 nM.

`N#Cc1cccc(-c2nc(N)c3cc(C(O)c4ccccc4F)nn3c2-c2ccncn2)c1` (racemic) [Example 23, 3-(4-Amino-2-((2-fluorophenyl)(hydroxy)methyl)-7-(pyrimidin-4-yl)pyrazolo[1,5-a]pyrazin-6-yl)benzonitrile]: the Ki in assay [1] (setting [3]) was less than 0.01 µM. The molecule further registered an EC50 in assay [2] (A2B_cAMP_EC50 (nM)) of less than 10 nM.

On to `N#Cc1cccc(-c2cn3nc(Cc4c(F)cccc4-c4cnn(Cc5ccccn5)c4)nc3c(N)n2)c1F` [Example 107, 3-(8-amino-2-(2-fluoro-6-(1-(pyridin-2-ylmethyl)-1H-pyrazol-4-yl)benzyl)-[1,2,4]triazolo[1,5-a]pyrazin-6-yl)-2-fluorobenzonitrile], for which, in assay [1] (setting [3]), the Ki was less than 0.01 µM. The molecule also showed an EC50 in assay [2] (A2B_cAMP_EC50 (nM)) of 10 to 100 nM.

On to `N#Cc1cccc(-c2nc(N)c3cc(Cc4ccccc4F)nn3c2C2=CCN(C(N)=O)CC2)c1` [Example 19, 4-(4-Amino-6-(3-cyanophenyl)-2-(2-fluorobenzyl)pyrazolo[1,5-a]pyrazin-7-yl)-5,6-dihydropyridine-1(2H)-carboxamide], for which the Ki in assay [1] (setting [3]) was less than 0.01 µM. Moreover, in assay [2] (A2B_cAMP_EC50 (nM)), the EC50 lay in the range of 10 to 100 nM.

Consider `Cn1cc(-c2c(-c3cccc(C#N)c3)nc(N)c3nc(Cc4ccccn4)nn23)ccc1=O` [Example 28, 3-(8-Amino-5-(1-methyl-6-oxo-1,6-dihydropyridin-3-yl)-2-(pyridin-2-ylmethyl)-[1,2,4]triazolo[1,5-a]pyrazin-6-yl)benzonitrile], for which the Ki in assay [1] (setting [3]) was less than 0.01 µM. The molecule also displayed an EC50 in assay [2] (A2B_cAMP_EC50 (nM)) of 10 to 100 nM.

In the case of `Cc1nc(C(O)C(F)F)c(-c2c(-c3cccc(C#N)c3F)nc(N)c3nc(Cc4ccccn4)nn23)o1` (centres unmarked) [Example 87, 3-(8-amino-5-(4-(2,2-difluoro-1-hydroxyethyl)-2-methyloxazol-5-yl)-2-(pyridin-2-ylmethyl)-[1,2,4]triazolo[1,5-a]pyrazin-6-yl)-2-fluorobenzonitrile], the Ki in assay [1] (setting [3]) was less than 0.01 µM. In assay [2] (A2B_cAMP_EC50 (nM)), this molecule displayed an EC50 of 10 to 100 nM.

For the molecule `CCNC(=O)c1cc2c(N)nc(-c3cccc(C#N)c3)c(-c3ccnn3CC)n2n1` [Example 1, 4-Amino-6-(3-cyanophenyl)-N-ethyl-7-(1-ethyl-1H-pyrazol-5-yl)pyrazolo[1,5-a]pyrazine-2-carboxamide], the Ki in assay [1] (setting [3]) was less than 0.01 µM. Further, the EC50 in assay [2] (A2B_cAMP_EC50 (nM)) was 10 to 100 nM.

For `N#Cc1cccc(-c2nc(N)c3nc(C(O)c4ccccc4Cl)nn3c2-c2ccncn2)c1` (single isomer, unassigned) [Example 58, 3-(8-Amino-2-((2-chlorophenyl)(hydroxy)methyl)-5-(pyrimidin-4-yl)-[1,2,4]triazolo[1,5-a]pyrazin-6-yl)benzonitrile], the Ki in assay [1] (setting [4]) was less than 0.01 µM. Also, the EC50 in assay [2] (read-out: A2B_cAMP_EC50) is less than 10 nM.

On to `N#Cc1cccc(-c2nc(N)c3cc(C4=CCOCC4)nn3c2-c2ccncn2)c1` [Example 24, 3-(4-Amino-2-(3,6-dihydro-2H-pyran-4-yl)-7-(pyrimidin-4-yl)pyrazolo[1,5-a]pyrazin-6-yl)benzonitrile], for which the Ki in assay [1] (setting [3]) is less than 0.01 µM. The same molecule yielded an EC50 in assay [2] (A2B_cAMP_EC50 (nM)) of 10 to 100 nM.

Consider `N#Cc1cccc(-c2nc(N)c3nc(Cc4ccccc4CN[C@H]4CCNC4=O)nn3c2-c2ccncn2)c1` [Example 75, (S)-3-(8-amino-2-(2-(((2-oxopyrrolidin-3-yl)amino)methyl)benzyl)-5-(pyrimidin-4-yl)-[1,2,4]triazolo[1,5-a]pyrazin-6-yl)benzonitrile], for which the Ki in assay [1] (setting [3]) is less than 0.01 µM. The same molecule showed an EC50 in assay [2] (A2B_cAMP_EC50 (nM)) of less than 10 nM.

With `N#Cc1cccc(-c2nc(N)c3nc(C(O)c4c(F)cccc4F)nn3c2-c2ccc3nncn3c2)c1` (racemic) [Example 104, 3-(5-([1,2,4]triazolo[4,3-a]pyridin-6-yl)-8-amino-2-((2,6-difluorophenyl)(hydroxy)methyl)-[1,2,4]triazolo[1,5-a]pyrazin-6-yl)benzonitrile], the Ki in assay [1] (setting [3]) is less than 0.01 µM. In assay [2] (A2B_cAMP_EC50 (nM)), the EC50 was in the range of 10 to 100 nM.

For the molecule `CN1CCC(NCc2cccc(F)c2Cc2nc3c(N)nc(-c4cccc(C#N)c4)c(-c4ccncn4)n3n2)C1=O` (centres unmarked) [Example 72, 3-(8-amino-2-(2-fluoro-6-(((1-methyl-2-oxopyrrolidin-3-yl)amino)methyl)benzyl)-5-(pyrimidin-4-yl)-[1,2,4]triazolo[1,5-a]pyrazin-6-yl)benzonitrile], in assay [1] (setting [3]), the Ki was less than 0.01 µM. Also, the EC50 in assay [2] (A2B_cAMP_EC50 (nM)) was less than 10 nM.

As for `CCOC(=O)Nc1nc2c(N)nc(-c3cccc(C#N)c3)cn2n1` [Example 14, Ethyl(8-amino-6-(3-cyanophenyl)-[1,2,4]triazolo[1,5-a]pyrazin-2-yl)carbamate], the Ki in assay [1] fell in the range of 0.01 to 0.1 µM. Further, in assay [2] (A2B_cAMP_EC50 (nM)), the EC50 was greater than 1000 nM.

As for `CN1CCC2(CN(Cc3cccc(F)c3Cc3nc4c(N)nc(-c5cccc(C#N)c5)c(-c5ccncn5)n4n3)C2)C1=O` [Example 66, 3-(8-amino-2-(2-fluoro-6-((6-methyl-5-oxo-2,6-diazaspiro[3.4]octan-2-yl)methyl)benzyl)-5-(pyrimidin-4-yl)-[1,2,4]triazolo[1,5-a]pyrazin-6-yl)benzonitrile], the Ki in assay [1] (setting [3]) was less than 0.01 µM. In assay [2] (A2B_cAMP_EC50 (nM)), this molecule had an EC50 of less than 10 nM.

With `Cc1ncoc1-c1c(-c2cccc(C#N)c2)nc(N)c2nc(C(=O)N3CCC3)nn12` [Example 61, 3-(8-Amino-2-(azetidine-1-carbonyl)-5-(4-methyloxazol-5-yl)-[1,2,4]triazolo[1,5-a]pyrazin-6-yl)benzonitrile], the Ki in assay [1] (setting [3]) is less than 0.01 µM. In assay [2] (A2B_cAMP_EC50 (nM)), this molecule showed an EC50 of less than 10 nM.

Turning to `Cc1cnccc1-c1c(-c2cccc(C#N)c2)nc(N)c2nc(C(O)c3c(F)cccc3F)nn12` (single isomer, unassigned) [Example 109, 3-(8-amino-2-((2,6-difluorophenyl)(hydroxy)methyl)-5-(3-methylpyridin-4-yl)-[1,2,4]triazolo[1,5-a]pyrazin-6-yl)benzonitrile], the Ki in assay [1] (setting [4]) was less than 0.01 µM. Besides, in assay [2] (read-out: A2B_cAMP_EC50), the EC50 is less than 10 nM.

Take `N#Cc1cccc(-c2nc(N)c3nc(Cc4c(F)cccc4CN4CC[C@H](C(=O)O)C4)nn3c2-c2ccncn2)c1` [Example 30, (S)-1-(2-((8-Amino-6-(3-cyanophenyl)-5-(pyrimidin-4-yl)-[1,2,4]triazolo[1,5-a]pyrazin-2-yl)methyl)-3-fluorobenzyl)pyrrolidine-3-carboxylic Acid]: the Ki in assay [1] (setting [3]) is less than 0.01 µM. Also, the EC50 in assay [2] (A2B_cAMP_EC50 (nM)) lay in the range of 10 to 100 nM.

Turning to `CCN(CC)C(=O)c1cc2c(N)nc(-c3cccc(C#N)c3)c(-c3ccncn3)n2n1` [Example 10, 4-Amino-6-(3-cyanophenyl)-N,N-diethyl-7-(pyrimidin-4-yl)pyrazolo[1,5-a]pyrazine-2-carboxamide], in assay [1] (setting [3]), the Ki is less than 0.01 µM. The same molecule yielded an EC50 in assay [2] (A2B_cAMP_EC50 (nM)) of less than 10 nM.

As to `N#Cc1cccc(-c2nc(N)c3nc(Cn4ccc5cccnc54)nn3c2-c2ccncn2)c1` [Example 32, 3-(2-((1H-Pyrrolo[2,3-b]pyridin-1-yl)methyl)-8-amino-5-(pyrimidin-4-yl)-[1,2,4]triazolo[1,5-a]pyrazin-6-yl)benzonitrile], the Ki in assay [1] (setting [3]) is less than 0.01 µM. For the same molecule, in assay [2] (A2B_cAMP_EC50 (nM)), the EC50 is less than 10 nM.

`N#Cc1cccc(-c2cn3nc(Cc4ccccn4)cc3c(N)n2)c1` [Example 16, 3-(4-Amino-2-(pyridin-2-ylmethyl)pyrazolo[1,5-a]pyrazin-6-yl)benzonitrile]: the Ki in assay [1] (setting [3]) was less than 0.01 µM. In assay [2] (A2B_cAMP_EC50 (nM)), the EC50 was less than 10 nM.

Turning to `Cn1cc(-c2c(-c3cccc(C#N)c3F)nc(N)c3nc(Cc4ccccn4)nn23)ccc1=O` [Example 89, 3-(8-amino-5-(1-methyl-6-oxo-1,6-dihydropyridin-3-yl)-2-(pyridin-2-ylmethyl)-[1,2,4]triazolo[1,5-a]pyrazin-6-yl)-2-fluorobenzonitrile], the Ki in assay [1] (setting [3]) was less than 0.01 µM. In addition, the EC50 in assay [2] (A2B_cAMP_EC50 (nM)) was in the range of 10 to 100 nM.

As for `Cc1cc(-c2c(-c3cccc(C#N)c3)nc(N)c3nc(C(O)c4c(F)cccc4F)nn23)cc(C)n1` (single isomer, unassigned) [Example 94, 3-(8-amino-2-((2,6-difluorophenyl)(hydroxy)methyl)-5-(2,6-dimethylpyridin-4-yl)-[1,2,4]triazolo[1,5-a]pyrazin-6-yl)benzonitrile], the Ki in assay [1] was less than 0.01 µM. In assay [2] (A2B_cAMP_EC50 (nM)), this molecule came in with an EC50 of 10 to 100 nM.

On to `N#Cc1cccc(-c2nc(N)c3nc(C(O)c4c(F)cccc4F)nn3c2-c2cnco2)c1` (single isomer, unassigned) [Example 105, 3-(8-amino-2-((2,6-difluorophenyl)(hydroxy)methyl)-5-(oxazol-5-yl)-[1,2,4]triazolo[1,5-a]pyrazin-6-yl)benzonitrile], for which the Ki in assay [1] was less than 0.01 µM. Moreover, the EC50 in assay [2] (A2B_cAMP_EC50 (nM)) is less than 10 nM.
